Molecular target: T1, GAL4 DBD (1-147)-CfEcR(DEF)/VP16AD-βRXREF-LmUSPEF (Choristoneura fumiferana, UniProt O77240)
T1 construct: The wild-type D, E, and F domains from spruce budworm Choristoneura fumiferana EcR (“CfEcR-DEF”)
Experiment: 27-63 Assay (luciferase reporter gene assay in stably transfected CHO cell clone)
Type: cell-based
Settings: for relative Max F1 27-63 Assay: maximum fold induction at any concentration relative to maximum fold induction of GS-E ligand
Procedure: Stably transfected cells were selected by Zeocin resistance. Individually isolated CHO cell clones were transiently transfected with a GAL4 RE-luciferase reporter (pFR Luc). 27-63 clone was selected using Hygromycin.
Cells were trypsinized and diluted to a concentration of 2.5×10^4 cells mL. 100 μL of cell suspension was placed in each well of a 96 well plate and incubated at 37° C. under 5% CO2 for 24 h. Ligand stock solutions were prepared in DMSO and diluted 300 fold for all treatments.
Luciferase reporter gene expression was measured 48 h after cell treatment using Bright-Glo™ Luciferase Assay System from Promega (E2650). Luminescence was detected at room temperature using a Dynex MLX microtiter plate luminometer. EC50s were calculated from dose response data using a three-parameter logistic model.
Each assay was conducted in two separate wells, and the two values were averaged.

[1] = CHO 27-63 clone, luciferase, 48 h

`Cc1cc(C)cc(C(=O)N(NC(=O)c2ccc3c(c2C)O[C@@H](CS(C)(=O)=O)CO3)C(C)(C)C)c1` [RG-115818, 3,5-Dimethyl-benzoic acid N-tert-butyl-N′-(3-methanesulfonyl-methyl-5-methyl-2,3-dihydro-benzo[1,4]dioxine-6-carbonyl)-hydrazide] showed an EC50 of 5.26 µM.

With `CCc1c(OC)cccc1C(=O)NN(C(=O)c1cc(C)cc(C)c1)C(C)(C)C` [GS ™-E ligand, 3,5-Dimethyl-benzoic acid N-tert-butyl-N′-(2-ethyl-3-methoxy-benzoyl)-hydrazide, reference compound] the EC50 was 0.288 µM.

With `C=CCC(C)(C)C(CCCC)N(NC(=O)c1cccc(OC)c1C)C(=O)c1cc(C)cc(C)c1` (stereo not shown) [RG-115878, 3,5-dimethyl-benzoic acid N-(1-butyl-2,2-dimethyl-pent-4-enyl)-N′-(3-methoxy-2-methyl-benzoyl)-hydrazide] the EC50 was 0.1 µM and the “relative Max F1 27-63 Assay” value [1] was 1.05.

With `CSCC1COc2ccc(C(=O)NN(C(=O)c3cc(C)cc(C)c3)C(C)(C)C)c(C)c2O1` (stereo not shown) [RG-115817, 3,5-dimethyl-benzoic acid N-tert-butyl-N′-(5-methyl-3-methylsulfanylmethyl-2,3-dihydro-benzo[1,4]dioxine-6-carbonyl)-hydrazide] the EC50 was 2.9 µM and the “relative Max F1 27-63 Assay” value [1] was 0.95.

In the case of `Cc1cc(C)cc(C(=O)N(NC(=O)c2ccc3c(c2C)OC(CF)CO3)C(C)(C)C)c1` (stereo not shown) [RG-115815, 3,5-dimethyl-benzoic acid N-tert-butyl-N′-(3-fluoromethyl-5-methyl-2,3-dihydro-benzo[1,4]dioxine-6-carbonyl)-hydrazide], the EC50 is reported as 0.3 µM and the “relative Max F1 27-63 Assay” value [1] is reported as 0.738.

With `Cc1cc(C)cc(C(=O)N(NC(=O)c2ccc3c(c2C)OC(CC#N)CO3)C(C)(C)C)c1` (stereo not shown) [RG-115816, 3,5-Dimethyl-benzoic acid N-tert-butyl-N′-(3-cyanomethyl-5-methyl-2,3-dihydro-benzo[1,4]dioxine-6-carbonyl)-hydrazide] the EC50 was 4.22 µM and the “relative Max F1 27-63 Assay” value [1] was 0.85.

For `Cc1cc(C)cc(C(=O)N(NC(=O)c2ccc3c(c2C)OC(C(=O)O)CO3)C(C)(C)C)c1` (stereo not shown) [RG-115805, 7-[N′-tert-butyl-N′-(3,5-dimethyl-benzoyl)-hydrazinocarbonyl]-8-methyl-2,3-dihydro-benzo[1,4]dioxine-2-carboxylic acid], the EC50 was over 33 µM and the “relative Max F1 27-63 Assay” value [1] was 0.01.

In the case of `COc1cccc(C(=O)NN(C(=O)c2cc(C)cc(C)c2)/C(=C/C#N)C(C)(C)C)c1C` [RG-115860, 3-methoxy-2-methyl-benzoic acid N′-(1-tert-butyl-2-cyano-vinyl)-N′-(3,5-dimethylbenzoyl) hydrazide], the “Avg F1 27-63 Assay” value (at 33 μM, CHO 27-63 clone, luciferase, 48 h) is reported as “Avg F1 = 2307 at 33 μM”.

For `Cc1cc(C)cc(C(=O)N(NC(=O)c2ccc3c(c2C)OC(C(=O)Oc2c(F)c(F)c(F)c(F)c2F)CO3)C(C)(C)C)c1` (stereo not shown) [RG-115810, 7-[N′-tert-butyl-N′-(3,5-dimethyl-benzoyl)-hydrazinocarbonyl]-8-methyl-2,3-dihydro-benzo[1,4]dioxine-2-carboxylic acid pentafluorophenyl ester], the EC50 was about 20 µM and the “relative Max F1 27-63 Assay” value [1] was 1.23.

In the case of `Cc1cc(C)cc(C(=O)N(NC(=O)c2ccc3c(c2C)OC(C=O)CO3)C(C)(C)C)c1` (stereo not shown) [RG-115812, 3,5-dimethyl-benzoic acid N-tert-butyl-N′-(3-formyl-5-methyl-2,3-dihydro-benzo[1,4]dioxine-6-carbonyl)-hydrazide], the EC50 is reported as 2.68 µM and the “relative Max F1 27-63 Assay” value [1] is reported as 0.86.

With `CCCCCCC(N(NC(=O)c1ccc(CC)cc1)C(=O)c1cc(C)cc(C)c1)C(C)(C)C` (stereo not shown) [RG-115843] the EC50 was 0.85 µM and the “relative Max F1 27-63 Assay” value [1] was 0.73.

With `CNC(=O)C1COc2ccc(C(=O)NN(C(=O)c3cc(C)cc(C)c3)C(C)(C)C)c(C)c2O1` (stereo not shown) [RG-115811, 7-[N′-tert-butyl-N′-(3,5-dimethyl-benzoyl)-hydrazinocarbonyl]-8-methyl-2,3-dihydro-benzo[1,4]dioxine-2-carboxylic acid methylamide] the EC50 was over 33 µM and the “relative Max F1 27-63 Assay” value [1] was 0.24.

With `COC(=O)[C@H]1COc2ccc(C(=O)NN(C(=O)c3cc(C)cc(C)c3)C(C)(C)C)c(C)c2O1` [RG-115806] the EC50 was about 33 µM and the “relative Max F1 27-63 Assay” value [1] was 0.25.

For `CCCCCCC(N(NC(=O)c1cccc(OC)c1C)C(=O)c1cc(C)cc(C)c1)C(C)(C)C` (stereo not shown) [RG-115853, 3,5-dimethyl-benzoic acid N-(1-tert-butyl-heptyl)-N′-(3-methoxy-2-methyl-benzoyl)-hydrazide], the EC50 was 0.1 µM and the “relative Max F1 27-63 Assay” value [1] was 0.898.

In the case of `CCCCCCC(N(NC(=O)c1ccc(CC)cc1)C(=O)c1cccnc1OC)C(C)(C)C` (stereo not shown) [RG-115845, 2-methoxy-nicotinic acid N-(1-tert-butyl-heptyl)-N′-(4-ethyl-benzoyl)-hydrazide], the EC50 is reported as 4.47 µM and the “relative Max F1 27-63 Assay” value [1] is reported as 0.52.

For `Cc1cc(C)cc(C(=O)N(NC(=O)c2ccc3c(c2C)O[C@@H](CO[Si](C)(C)C(C)(C)C)CO3)C(C)(C)C)c1` [RG-115790, 3,5-dimethylbenzoic acid N-tert-butyl-N′-[3-(tert-butyldimethylsilytoxymethyl)-5-methyl-2,3-dihydrobenzo[1,4]dioxine-6-carbonyl]-hydrazide], the EC50 was over 33 µM and the “relative Max F1 27-63 Assay” value [1] was 0.0.

In the case of `CCCCC(N(NC(=O)c1cccc(OC)c1C)C(=O)c1cc(C)cc(C)c1)C(C)(C)CCC` (stereo not shown) [RG-115877, 3,5-Dimethyl-benzoic acid N-(1-butyl-2,2-dimethyl-pentyl)-N′-(3-methoxy-2-methyl-benzoyl)-hydrazide], the EC50 is reported as 2.25 µM and the “relative Max F1 27-63 Assay” value [1] is reported as 1.48.

In the case of `Cc1cc(C)cc(C(=O)N(NC(=O)c2ccc3c(c2C)OC(COC(=O)Nc2ccccc2)CO3)C(C)(C)C)c1` (stereo not shown) [RG-115808, phenyl-carbamic acid 7-[N′-tert-butyl-N′-(3,5-dimethyl-benzoyl)-hydrazinocarbonyl]-8-methyl-2,3-dihydro-benzo[1,4]dioxin-2-ylmethyl ester], the EC50 is reported as 1.12 µM and the “relative Max F1 27-63 Assay” value [1] is reported as 2.37.

For `Cc1cc(C)cc(C(=O)N(NC(=O)c2ccc3c(c2C)O[C@@H](C=NNC(N)=O)CO3)C(C)(C)C)c1` [RG-115807, 3,5-dimethyl-benzoic acid N-tert-butyl-N′-(3-formylsemicarbazide-5-methyl-2,3-dihydro-benzo[1,4]dioxine-6-carbonyl)-hydrazide], the EC50 was 3.34 µM and the “relative Max F1 27-63 Assay” value [1] was 0.80.

`Cc1cc(C)cc(C(=O)N(NC(=O)c2ccc3c(c2C)OC(CCN)CO3)C(C)(C)C)c1` (stereo not shown) [RG-115809, 3,5-dimethyl-benzoic acid N′-[3-(2-amino-ethyl)-5-methyl-2,3-dihydro-benzo[1,4]dioxine-6-carbonyl]-N-tert-butyl-hydrazide] was tested, and the EC50 was 3.25 µM and the “relative Max F1 27-63 Assay” value [1] was 1.09.

With `Cc1ccc(S(=O)(=O)OCC2COc3ccc(C(=O)NN(C(=O)c4cc(C)cc(C)c4)C(C)(C)C)c(C)c3O2)cc1` (stereo not shown) [RG-115813, toluene-4-sulfonic acid 7-[N′-tert-butyl-N′-(3,5-dimethyl-benzoyl)-hydrazinocarbonyl]-8-methyl-2,3-dihydro-benzo[1,4]dioxin-2-ylmethyl ester] the EC50 was over 33 µM and the “relative Max F1 27-63 Assay” value [1] was 0.01.

For `COc1cccc(C(=O)NN(C(=O)c2cc(C)cc(C)c2)C(/C=C(\C)C(C)(C)C)C(C)(C)C)c1C` (stereo not shown) [RG-115855, 3-methoxy-2-methyl-benzoic acid N′-(1-tert-butyl-3,4,4-trimethyl-pent-2-enyl)-N′-(3,5-dimethyl-benzoyl)-hydrazide], the EC50 was 0.0267 µM and the “relative Max F1 27-63 Assay” value [1] was 1.16.

In the case of `CCCCCCC(N(NC(=O)c1cccc(OC)c1C)C(=O)c1cc(OC)c(C)c(OC)c1)C(C)(C)C` (stereo not shown) [RG-115854], the EC50 is reported as 0.2 µM and the “relative Max F1 27-63 Assay” value [1] is reported as 0.917.

In the case of `Cc1cc(C)cc(C(=O)N(NC(=O)c2ccc3c(c2C)OC(C=NO)CO3)C(C)(C)C)c1` (stereo not shown) [RG-115814, 3,5-dimethyl-benzoic acid N-tert-butyl-N′-[3-(hydroxyimino-methyl)-5-methyl-2,3-dihydro-benzo[1,4]dioxine-6-carbonyl]-hydrazide], the EC50 is reported as 0.32 µM and the “relative Max F1 27-63 Assay” value [1] is reported as 1.0.

`Cc1cc(C)cc(C(=O)N(NC(=O)c2ccc3c(c2C)OC(CO)CO3)C(C)(C)C)c1` (stereo not shown) [RG-115789, 3,5-dimethylbenzoic acid N-tert-butyl-N′-(3-hydroxymethyl-5-methyl-2,3-dihydrobenzo[1,4]dioxine-6-carbonyl)-hydrazide] was tested, and the EC50 was 1.85 µM and the “relative Max F1 27-63 Assay” value [1] was 0.81.

`CCCCCCC(N(NC(=O)c1ccc(CC)cc1)C(=O)c1cc(OC)c(C)c(OC)c1)C(C)(C)C` (stereo not shown) [RG-115844] was tested, and the EC50 was 1.23 µM and the “relative Max F1 27-63 Assay” value [1] was 0.352.

From patent publication US7851220B2, “Diacylhydrazine ligands for modulating the expression of exogenous genes in mammalian systems via an ecdysone receptor complex” (priority 2003, dated 2010)
